Assay: Fluorescence quenching with tryptophan (steady-state, Stern-Volmer)
Format: physicochemical
Conditions: phosphate buffered solutions, pH = 8.0, 25° C.; in M-1 (unit assumed)
Description: FIG. 4 illustrates the fluorescence quenching by tryptophan. Shown is the fluorescence of Dye 3 in the absence and presence of various concentration of tryptophan (Trp) in phosphate buffer (pH 8) as a function of wavelength.
Steady-state fluorescence spectroscopy was performed for Dye 2, Dye 3, Dye 14, and Mr121 dye in presence of tryptophan at 25° C. in phosphate buffer.
For evaluating the quenching efficiency, the steady-state fluorescence quenching results were analyzed following the Stern-Volmer equation F0/F=1+KQ[Q], where Fo and F are the fluorescence intensities in the absence and presence of tryptophan and KQ is a static Stern-Volmer constant.

| Tryptophan Stern-Volmer static quenching constant, KQ | SMILES |
| --- | --- |
| 269 ± 22 | CC1(C)CC(CS(=O)(=O)[O-])c2cc3c(cc2N1CCCS(=O)(=O)[O-])Oc1cc2c(cc1=N3)C(CS(=O)(=O)[O-])CC(C)(C)[N+]=2CCCC(=O)O.[Na+].[Na+] (stereo not drawn) [Dye 14, disodium (11-(3-carboxypropyl)-2,2,10,10-tetramethyl-1-(3-sulfonatopropyl)-2,3,4,8,9,10-hexahydro-1H-dipyrido[3,2-b:2′,3′-i]phenoxazine-11-ium-4,8-diyl)dimethanesulfonate] |
| 320 ± 26 | CC1CC(C)(C)N(CCCS(=O)(=O)O)c2cc3c(cc21)N=c1cc2c(cc1O3)=[N+](CCCC(=O)O)C(C)(C)CC2CS(=O)(=O)[O-] (stereo not drawn) [Dye 3, sodium 3-(11-(3-carboxypropyl)-2,2,4,10,10-pentamethyl-8-(sulfonatomethyl)-2,3,4,8,9,10-hexahydro-1H-dipyrido[3,2-b:2′,3′-i]phenoxazin-11-ium-1-yl)propane-1-sulfonate] |
| 263 ± 24 | CC1(C)CC(CS(=O)(=O)[O-])c2cc3c(cc2=[N+]1CCCC(=O)O)Oc1cc2c(cc1N=3)CCCN2CCCS(=O)(=O)O (stereo not drawn) [Dye 2, sodium 3-(11-(3-carboxypropyl)-10,10-dimethyl-8-(sulfonatomethyl)-2,3,4,8,9,10-hexahydro-1H-dipyrido[3,2-b:2′,3′-i]phenoxazin-11-ium-1-yl)propane-1-sulfonate] |

— patent publication US20120010404A1, “OXAZINE DYES WITH IMPROVED AQUEOUS SOLUBILITY” (SIGMA-ALDRICH CO., priority 2008, published 2012)
